For 10 compounds, Survival time results are on record in ChEMBL document CHEMBL1122447, “2-Acetylpyridine thiosemicarbazones. 5. 1-[1-(2-Pyridyl)ethyl]-3-thiosemicarbazides as potential antimalarial agents” (1983).

The test system of test [1] is Plasmodium berghei. The experiment in a line: Antimalarial activity against Plasmodium berghei infected mice (Mus musculus) at 160 mg/kg; toxic in 3 of 5. The format is functional, organism-based. Also noted: dose 160 mg/kg.
Test [2] deals with Plasmodium berghei. The experiment in a line: Antimalarial activity against Plasmodium berghei infected mice (Mus musculus) at 640 mg/kg; toxic in 5 of 5. The format is functional, organism-based. Also noted: dose 640 mg/kg.
Test [3] relates to Plasmodium berghei. The experiment in a line: Antimalarial activity against Plasmodium berghei infected mice (Mus musculus) at 160 mg/kg; cured 1 of 5. Also noted: dose 160 mg/kg. The format is functional, organism-based.
Test [4] deals with Plasmodium berghei. The experiment in a line: Increased mean survival time in drug-sensitive Plasmodium berghei infected mice (Mus musculus) at 40 mg/kg dose. The format is functional.
Test [5] concerns Plasmodium berghei. The experiment in a line: Increased mean survival time in drug-sensitive Plasmodium berghei infected mice (Mus musculus) at 20 mg/kg dose. The format is functional.
Test [6] has as its system Plasmodium berghei. The experiment in a line: Antimalarial activity against Plasmodium berghei infected mice (Mus musculus) at 160 mg/kg; toxic in 5 of 5. The format is functional, organism-based. Also noted: dose 160 mg/kg.
Test [7] relates to Plasmodium berghei. Description: Increased mean survival time in drug-sensitive Plasmodium berghei infected mice (Mus musculus) at 640 mg/kg; toxic in 5 of 5. It is filed as functional, organism-based. The arrangement: dose 640 mg/kg.
The subject of test [8] is Plasmodium berghei. Description: Increased mean survival time in drug-sensitive Plasmodium berghei infected mice (Mus musculus) at 160 mg/kg; toxic in 5 of 5. It is filed as functional, organism-based. The arrangement: dose 160 mg/kg.
Test [9] concerns Plasmodium berghei. The experiment in a line: Increased mean survival time in drug-sensitive Plasmodium berghei infected mice (Mus musculus) at 40 mg/kg; cured 1 of 5. The format is functional, organism-based. Also noted: dose 40 mg/kg.
The subject of test [10] is Plasmodium berghei. The experiment in a line: Increased mean survival time in drug-sensitive Plasmodium berghei infected mice (Mus musculus) at 160 mg/kg; cured 4 of 5. The format is functional, organism-based. The arrangement: dose 160 mg/kg.
Test [11] concerns Plasmodium berghei. The experiment in a line: Increased mean survival time in drug-sensitive Plasmodium berghei infected mice (Mus musculus) at 80 mg/kg; cured 1 of 5. It is filed as functional, organism-based. Also noted: dose 80 mg/kg.
Test [12] relates to Plasmodium berghei. The experiment in a line: Increased mean survival time in drug-sensitive Plasmodium berghei infected mice (Mus musculus) at 320 mg/kg; cured 5 of 5. It is filed as functional, organism-based. Also noted: dose 320 mg/kg.
The subject of test [13] is Plasmodium berghei. Description: Increased mean survival time in drug-sensitive Plasmodium berghei infected mice (Mus musculus) at 160 mg/kg; cured 3 of 5. Also noted: dose 160 mg/kg. The format is functional, organism-based.
Test [14] has as its system Plasmodium berghei. Description: Increased mean survival time in drug-sensitive Plasmodium berghei infected mice (Mus musculus) at 640 mg/kg; cured 5 of 5. It is filed as functional, organism-based. Also noted: dose 640 mg/kg.
Test [15] deals with Plasmodium berghei. The experiment in a line: Increased mean survival time in drug-sensitive Plasmodium berghei infected mice (Mus musculus) at 160 mg/kg; cured 2 of 5. It is filed as functional, organism-based. Also noted: dose 160 mg/kg.
Test [16] relates to Plasmodium berghei. The experiment in a line: Increased mean survival time in drug-sensitive Plasmodium berghei infected mice (Mus musculus) at 20 mg/kg; cured 3 of 5. The arrangement: dose 20 mg/kg. It is filed as functional, organism-based.
Test [17] relates to Plasmodium berghei. Description: Increased mean survival time in drug-sensitive Plasmodium berghei infected mice (Mus musculus) at 320 mg/kg dose. The format is functional.
Test [18] has as its system Plasmodium berghei. The experiment in a line: Increased mean survival time in drug-sensitive Plasmodium berghei infected mice (Mus musculus) at 40 mg/kg; cured 4 of 5. The format is functional, organism-based. The arrangement: dose 40 mg/kg.
For test [19], the system named is Plasmodium berghei. Description: Increased mean survival time in drug-sensitive Plasmodium berghei infected mice (Mus musculus) at 80 mg/kg; cured 5 of 5. The format is functional, organism-based. The arrangement: dose 80 mg/kg.
Test [20] has as its system Plasmodium berghei. Description: Increased mean survival time in drug-sensitive Plasmodium berghei infected mice (Mus musculus) at 640 mg/kg; cured 2 of 5. The format is functional, organism-based. Also noted: dose 640 mg/kg.
Test [21] relates to Plasmodium berghei. The experiment in a line: Increased mean survival time in drug-sensitive Plasmodium berghei infected mice (Mus musculus) at 320 mg/kg; cured 3 of 5. It is filed as functional, organism-based. The arrangement: dose 320 mg/kg.
Test [22] deals with Plasmodium berghei. Description: Increased mean survival time in drug-sensitive Plasmodium berghei infected mice (Mus musculus) at 160 mg/kg; cured 1 of 5. It is filed as functional, organism-based. Also noted: dose 160 mg/kg.
The test system of test [23] is Plasmodium berghei. Description: Increased mean survival time in drug-sensitive Plasmodium berghei in mice (Mus musculus) at 80 mg/kg dose. The format is functional.
In test [24] the test system is Plasmodium berghei. The experiment in a line: Increased mean survival time in drug-sensitive Plasmodium berghei infected mice (Mus musculus) at 320 mg/kg; cured 2 of 5. The format is functional, organism-based. The arrangement: dose 320 mg/kg.
In test [25] the test system is Plasmodium berghei. The experiment in a line: Increase in mean survival time in drug-sensitive Plasmodium berghei infected mice (Mus musculus) at 160 mg/kg dose; cured 1 of 5. The format is functional, organism-based. Also noted: dose 160 mg/kg.
Test [26] concerns Plasmodium berghei. Description: Increased mean survival time in drug-sensitive Plasmodium berghei infected mice (Mus musculus) at 640 mg/kg; cured 3 of 5. The format is functional, organism-based. The arrangement: dose 640 mg/kg.
Test [27] concerns Plasmodium berghei. Description: Increased mean survival time in drug-sensitive Plasmodium berghei infected mice (Mus musculus) at 40 mg/kg; cured 3 of 5. It is filed as functional, organism-based. Also noted: dose 40 mg/kg.

For `CC(N/N=C(\S)N1CCCC1)c1ccccn1` (configuration not stated), the Survival time entry was “Toxic in 3 of 5 mice” in the test with Plasmodium berghei [1]; “Toxic in 5 of 5 mice” in the test with Plasmodium berghei [2]; “Cured 1 of 5 mice” in the test with Plasmodium berghei [3]; 5.2 days in the test with Plasmodium berghei [4]; 1.3 days in the test with Plasmodium berghei [5].

As to `CC(N/N=C(\S)N1CCCCCC1)c1ccccn1` (configuration not stated), the Survival time result in the test on Plasmodium berghei [2] was “Toxic in 5 of 5 mice”; with Plasmodium berghei [6] it was “Toxic in 5 of 5 mice”; in the test with Plasmodium berghei [4], 2.4 days.

As for `C/C(=N\NC(=S)N1CCCC1)c1ccccn1`, the Survival time entry with Plasmodium berghei [7] was “Toxic in 5 of 5 mice”; in the test on Plasmodium berghei [4] it was 8.9 days; in the test on Plasmodium berghei [8] it was “Toxic in 5 of 5 mice”.

As for `CC(N/N=C(\S)N1CCC(c2ccccc2)CC1)c1ccccn1` (configuration not stated), the Survival time result in the test on Plasmodium berghei [9] is “Cured 1 of 5 mice”; with Plasmodium berghei [2] it was “Toxic in 5 of 5 mice”; in the test on Plasmodium berghei [10] it was “Cured 4 of 5 mice”.

In the case of `C/C(=N\NC(=S)N(C)C)c1ccccn1`, the Survival time entry in the test with Plasmodium berghei [7] was “Toxic in 5 of 5 mice”; in the test on Plasmodium berghei [4] it was 0.5 days.

Turning to `C/C(=N\N=C(/S)N1CCC(c2ccccc2)CC1)c1ccccn1`, the Survival time entry in the test with Plasmodium berghei [11] is “Cured 1 of 5 mice”; in the test with Plasmodium berghei [4], 0.4 days; with Plasmodium berghei [12] it was “Cured 5 of 5 mice”; with Plasmodium berghei [13] it was “Cured 3 of 5 mice”; in the test with Plasmodium berghei [14], “Cured 5 of 5 mice”.

Take `C/C(=N\NC(=S)N1CCN(c2ccccn2)CC1)c1ccccn1`: the Survival time result in the test on Plasmodium berghei [15] was “Cured 2 of 5 mice”; with Plasmodium berghei [16], “Cured 3 of 5 mice”; with Plasmodium berghei [17], 0.7 days; in the test with Plasmodium berghei [7], “Toxic in 5 of 5 mice”; in the test with Plasmodium berghei [18], “Cured 4 of 5 mice”; in the test with Plasmodium berghei [19], “Cured 5 of 5 mice”.

Take `CC(N/N=C(\[SeH])N1CCCCCC1)c1ccccn1` (configuration not stated): the Survival time result is “Cured 2 of 5 mice; toxic in 2 of 5 mice” with Plasmodium berghei [20]; “Cured 3 of 5 mice; toxic in 2 of 5 mice” in the test with Plasmodium berghei [21]; “Cured 1 of 5 mice” in the test with Plasmodium berghei [22]; 6.1 days in the test with Plasmodium berghei [23]; 5.9 days with Plasmodium berghei [4]; 0.3 days in the test on Plasmodium berghei [5].

Turning to `C/C(=N\N=C(/[SeH])N1CC2CCC(CC2)C1)c1ccccn1`, the Survival time entry in the test with Plasmodium berghei [24] is “Cured 2 of 5 mice”; with Plasmodium berghei [23], 5.9 days; in the test with Plasmodium berghei [4], 0.8 days; in the test on Plasmodium berghei [25], “Cured 1 of 5 mice”; with Plasmodium berghei [5], -0.1 days; in the test with Plasmodium berghei [26] it was “Cured 3 of 5 mice”.

In the case of `C/C(=N\N=C(/S)N1CCC(C)CC1)c1ccccn1`, the Survival time result in the test with Plasmodium berghei [27] was “Cured 3 of 5 mice”; with Plasmodium berghei [7], “Toxic in 5 of 5 mice”; in the test on Plasmodium berghei [8], “Toxic in 5 of 5 mice”.
